Data taken from ChEMBL document CHEMBL1201862, “PubChem BioAssay data set” (2004).
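Briefly, cells in 96-well plates were exposed to five compound concentrations for 48 h, and endpoints were estimated by linear interpolation. At the GI50, growth is halved.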 Calls of active or inactive are those of the source. Rule as the data show it: active = GI50 up to about 1.1 µM and inactive = higher.

Legend:
Experiment in all cases: NCI-60 cell line screen, 48 h
A549 = system: A549
HCC 2998 = system: HCC 2998
HL-60 = system: HL-60
MDA-MB-435 = system: MDA-MB-435
NCI/ADR-RES = system: NCI/ADR-RES
OVCAR-4 = system: OVCAR-4
PC-3 = system: PC-3
SK-MEL-28 = system: SK-MEL-28
SNB-19 = system: SNB-19
U-251 = system: U-251
DU-145 = system: DU-145
K562 = system: K562
LOX IMVI = system: LOX IMVI

Measured: GI50

COc1ccc(-c2cs/c(=N\c3ccccc3)n2CCCN(C)C)cc1
inactive: A549 17.1 µM | HCC 2998 16.3 µM | HL-60 5.58 µM | MDA-MB-435 18.4 µM | NCI/ADR-RES 15.2 µM | OVCAR-4 23.3 µM | PC-3 12.6 µM | SK-MEL-28 18.2 µM | SNB-19 19.2 µM | U-251 43.4 µM

C=CCCON(C(=O)OC(C)(C)C)c1ccccc1
inactive: A549 > 100 µM | DU-145 > 100 µM | HL-60 12.4 µM | K562 > 100 µM | LOX IMVI > 100 µM | MDA-MB-435 > 100 µM | NCI/ADR-RES 67 µM | PC-3 4.12 µM | SK-MEL-28 > 100 µM | SNB-19 > 100 µM | U-251 > 100 µM

CCc1ncc(C(C)(O)c2ccccc2)n1Cc1ccccc1 (stereo not drawn)
inactive: A549 35.5 µM | DU-145 > 100 µM | K562 33.4 µM | LOX IMVI 29.8 µM | MDA-MB-435 22.4 µM | NCI/ADR-RES 37.7 µM | OVCAR-4 35.8 µM | PC-3 43.4 µM | SK-MEL-28 33.4 µM | SNB-19 42.4 µM | U-251 34.6 µM

Cn1c(=O)c(Cl)c(N=[N+]=[N-])c2ccccc21
inactive: A549 94.4 µM | DU-145 > 100 µM | HCC 2998 > 100 µM | K562 47.1 µM | LOX IMVI 55.7 µM | NCI/ADR-RES > 100 µM | OVCAR-4 55.7 µM | PC-3 78.7 µM | SK-MEL-28 > 100 µM | SNB-19 > 100 µM | U-251 > 100 µM

CC(C)C1=C(O)C(=O)C2=C(C1=O)C(OC=O)C(O)C1C(C)(C)CCCC21C (stereo not drawn)
inactive: A549 14.7 µM | DU-145 5.06 µM | HCC 2998 6.82 µM | HL-60 3.56 µM | K562 6.35 µM | LOX IMVI 3.33 µM | MDA-MB-435 2.73 µM | OVCAR-4 10.2 µM | PC-3 11.2 µM | SK-MEL-28 3.13 µM | SNB-19 13.4 µM | U-251 4.28 µM

O=c1oc2ccc(-n3c(=O)c4ccccc4c4ccccc4c3=O)cc2c2ccccc12
inactive: A549 > 100 µM | HCC 2998 > 100 µM | HL-60 > 100 µM | K562 > 100 µM | LOX IMVI > 100 µM | MDA-MB-435 > 100 µM | NCI/ADR-RES > 100 µM | OVCAR-4 > 100 µM | PC-3 > 100 µM | SK-MEL-28 > 100 µM | SNB-19 37.7 µM | U-251 20.8 µM

COC(=O)N[C@H](C(=O)NC(OCc1ccccc1)C1COC(C)(C)O1)C(C)O[Si](C)(C)C(C)(C)C (stereo partly drawn)
inactive: A549 > 100 µM | DU-145 > 100 µM | HCC 2998 77.8 µM | HL-60 75.7 µM | K562 > 100 µM | NCI/ADR-RES > 100 µM | OVCAR-4 > 100 µM | PC-3 32.4 µM | SK-MEL-28 > 100 µM | SNB-19 > 100 µM | U-251 88.7 µM
